# Measurements as given in patent US11758905B2, “Amphotericin B and β-1,3-glucanase loaded bi-functional nano-system with both targets, preparation method and application thereof” (QINGDAO AGRICULTURAL UNIVERSITY, priority 2021, dated 2023).
# Tests used:
# Type in all cases: cell-based
# [1] = test system: Candida albicans BF 1; assay: Minimum inhibitory concentration determination; details: clinical isolate BF 1; 24 h, 37° C.
# Method: (§1) Fungus strain: Candida albicans DAY185; 3 clinical isolates of Candida albicans, obtained from Medical University of Vienna, named as Candida albicans BF 1, BF 2 and BF 3.
# (§2) 100 μl of Candida albicans (1×10^6 CFU/mL) is added to a 96-pore plate containing different concentrations (2, 1, 0.5, 0.25, 0.125, 0.0625 or 0 μg/mL) of free AmpB and CSNP-AmpB-Gls. The micropore plate is rotated at a rotation speed of 150 rpm and incubated at 37° C. for 24 h. The minimum inhibitory concentration is defined as the minimum AmpB concentration at which visible growth cannot be detected.
# [2] = test system: Candida albicans BF 2; assay: Minimum inhibitory concentration determination; details: clinical isolate BF 2; 24 h, 37° C.
# Method: as §1, §2
# [3] = test system: Candida albicans BF 3; assay: Minimum inhibitory concentration determination; details: clinical isolate BF 3; 24 h, 37° C.
# Method: as §1, §2
# [4] = test system: Candida albicans DAY185; assay: Minimum inhibitory concentration determination; details: strain DAY 185; 24 h, 37° C.; minimum AmpB concentration without visible growth
# Method: as §1, §2
# [5] = test system: Candida albicans biofilm on silica gel; assay: Influence on medical silica gel surface biofilm (CLSM viable/dead staining, SEM)
# Method: The biofilm on a silica gel is treated by free AmpB and NPs by following the method described above. The biofilm structure is studied through a scanning electron microscope. The biofilm survivability is observed with CLSM, and viable/dead fungus staining kit is used for staining, […]
compound,measurement,setting,value
"C[C@@H]1[C@H](O)[C@@H](C)/C=C/C=C/C=C/C=C/C=C/C=C/C=C/[C@H](O[C@@H]2O[C@H](C)[C@@H](O)[C@H](N)[C@@H]2O)C[C@@H]2O[C@](O)(C[C@@H](O)C[C@@H](O)[C@H](O)CC[C@@H](O)C[C@@H](O)CC(=O)O[C@H]1C)C[C@H](O)[C@H]2C(=O)O [AmpB, amphotericin B]",AmpB MIC,[1],2 µg/mL
same,AmpB MIC,[2],2 µg/mL
same,AmpB MIC,[3],4 µg/mL
same,AmpB MIC,[4],1 µg/mL
same,biofilm structure change by SEM,"[5]; silica gel, FIG. 6",significantly reduces fungus colonization
same,cell viability of the biofilm on silica gel by CLSM,"[5]; viable/dead staining, FIG. 5",green (viable cells) is significantly reduced
